Where two headings read alike, the source gives them in different places.
Key:
[1] = Liver microsomes stability, human; type: in vitro ADME
Protocol: A 100 μM test compound solution and PC solution (verapamil) was prepared by adding 2 μL of 10 mM stock solution in DMSO to 198 μL of 50% acetonitrile/50% water.
Two separate experiments were performed as follows:
a) With Cofactors (NADPH): 25 μL of 10 mM NADPH was added to the incubations. The final concentrations of microsomes and NADPH were 0.5 mg/mL and 1 mM, respectively.
b) Without Cofactors (NADPH): 25 μL of 100 mM Phosphate buffer was added to the incubations. The final concentration of microsomes was 0.5 mg/mL. The mixture was pre-warmed at 37° C. for 10 minutes.
The reaction was started with the addition of 2.5 μL of 100 µM control compound or test compound solutions. Verapamil was used as positive control in this study. The final concentration of test compound or control compound was 1 μM. The incubation solution was incubated in a water bath at 37° C.
Aliquots of 30 μL were taken from the reaction solution at 0.5, 15, 30, 45 and 60 minutes. The reaction was stopped by the addition of 5 volumes of cold acetonitrile with IS (100 nM alprazolam, 200 nM caffeine and 100 nM tolbutamide).
Samples were then centrifuged at 3,220 g for 40 minutes. An aliquot of 100 μL of the supernatant was mixed with 100 μL of ultra-pure H2O and then used for LC-MS/MS analysis.
(§1) Single dose PK parameters were also determined for Compound 143, a deuterated derivative of Compound 1, according to the methods described herein. […] Metabolic stability was assessed by measuring the half-life of the test compounds in human and mouse liver microsomes.

[2] = Single dose plasma pharmacokinetics after IV and PO administration; type: in vivo, female BALB/c mice; conditions: for F: PO 20 mg/kg vs IV 1 mg/kg; for F / AUC(0-t) / Cmax / AUC(0-inf) / C0 / clearance / half-life / Vd / Tmax: female BALB/c mice; for AUC(0-t) / Cmax: female, BALB/c; for AUC(0-t) / Cmax / AUC(0-inf) / C0 / clearance / half-life / Vd / Tmax: mouse, plasma; for Vd: read-out: Vss
Protocol: Single dose PK parameters in plasma were determined following intravenous administration of compound 1 and comparative compound E7820 at 1 mg/kg by using the formulation of 10% DMSO/30% PEG400/60% Saline. The plasma samples were collected at the following time points: 0.083, 0.25, 0.5, 1, 2, 4, 8 and 24 hrs post-dose. The concentrations in plasma were determined.
Single dose PK parameters in plasma were determined following oral gavage of Compound 1 and comparative compound E7820 at 20 mg/kg by using the formulation of 0.5% MC (400 cps) and 0.1% Tween80 in water. The plasma samples were collected at the following time points: 0.25, 0.5, 1, 2, 4, 8 and 24 hrs post dose.
as §1

[3] = molecular target: human ether-a-go-go related gene (hERG) channel (Homo sapiens, UniProt Q12809); assay: hERG inhibition assay (SyncroPatch automated patch clamp)
human ether-a-go-go related gene (hERG) channel, sequence (Q12809 whole entry): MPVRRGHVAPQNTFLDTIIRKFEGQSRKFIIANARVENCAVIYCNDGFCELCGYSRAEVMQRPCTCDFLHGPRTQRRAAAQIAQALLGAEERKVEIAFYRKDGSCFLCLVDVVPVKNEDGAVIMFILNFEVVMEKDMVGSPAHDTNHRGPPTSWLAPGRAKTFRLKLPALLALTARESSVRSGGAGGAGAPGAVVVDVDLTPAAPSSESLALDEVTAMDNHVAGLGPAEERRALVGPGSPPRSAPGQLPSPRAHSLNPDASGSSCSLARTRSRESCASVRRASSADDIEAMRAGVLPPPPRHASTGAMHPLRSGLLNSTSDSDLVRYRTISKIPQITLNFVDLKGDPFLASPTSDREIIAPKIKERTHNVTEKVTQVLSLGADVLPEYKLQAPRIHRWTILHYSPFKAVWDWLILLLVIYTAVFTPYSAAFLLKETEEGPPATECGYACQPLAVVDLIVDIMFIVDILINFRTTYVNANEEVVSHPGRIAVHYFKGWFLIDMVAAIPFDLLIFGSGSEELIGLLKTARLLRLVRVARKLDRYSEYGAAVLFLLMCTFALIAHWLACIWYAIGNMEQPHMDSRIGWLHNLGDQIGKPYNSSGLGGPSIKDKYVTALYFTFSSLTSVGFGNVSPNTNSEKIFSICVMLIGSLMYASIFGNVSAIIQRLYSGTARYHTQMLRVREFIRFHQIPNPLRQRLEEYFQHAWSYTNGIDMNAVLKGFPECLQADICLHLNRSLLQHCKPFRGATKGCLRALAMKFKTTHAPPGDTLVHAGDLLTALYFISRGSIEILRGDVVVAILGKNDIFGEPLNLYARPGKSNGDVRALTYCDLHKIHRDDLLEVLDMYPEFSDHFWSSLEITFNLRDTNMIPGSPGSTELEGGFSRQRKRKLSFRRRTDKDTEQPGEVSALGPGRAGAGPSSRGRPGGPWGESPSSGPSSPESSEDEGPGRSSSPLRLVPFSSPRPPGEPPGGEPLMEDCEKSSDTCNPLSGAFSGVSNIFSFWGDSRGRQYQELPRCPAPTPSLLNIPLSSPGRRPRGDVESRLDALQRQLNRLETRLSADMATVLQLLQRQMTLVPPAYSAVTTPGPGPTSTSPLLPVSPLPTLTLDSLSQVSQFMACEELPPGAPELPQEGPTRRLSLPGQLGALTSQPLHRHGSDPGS
Protocol: Inhibition of compounds on human ether-a-go-go related gene (hERG) channel was evaluated using a SyncroPatch 3848/384 automated patch clamp system. The SynchroPatch system is an independent method of measuring ion flux through ion channel proteins by measuring currents induced by ion flux into and out of the cell.
CHO herg-DUO cells stably expressing hERG channel were cultured in a medium containing F12 (HAM) medium, 10% FBS, 100 μg/mL penicillin-streptomycin, […] hygromycin and 100 µg/mL G418. Cells were split using TrypLE™ Express about three times a week, and maintained at about 80% confluence.
Compounds were prepared as a 50 mM stock solution in DMSO. The stock solution of each compound was serially diluted with DMSO to prepare 30 mM, 10 mM, 3.3 mM and 1.1 mM solutions. Working solutions 60 μM, 20 μM, 6.6 μM and 2.22 μM were prepared by 500-fold dilution of the […], 30 mM, 10 mM, 3.3 mM and 1.1 mM solutions, respectively using extracellular NMDG60 solution (80 mM NaCl, 60 mM N-methyl-d-glucamine, 4 mM KCl, 2 mM CaCl2, 1 mM MgCl2, 5 mM D-glucose and 10 mM HEPES).
Cells were harvested and added to SyncroPatch 384 chip (Nanion Technologies) and washed four times. Following establishment of the whole-cell voltage clamp configuration, cells were set to a holding potential of −90 mV for measured for 500 ms and currents were at 500 Hz and filtered at 3 kHz. The hERG current was elicited by depolarizing the membrane to +30 mV for 4.8 sec and the voltage was then taken back to −50 mV for 5.2 sec to remove the inactivation and measure the deactivating tail current for a sample interval of 15 s. The maximum amount of tail current size was used to determine hERG current amplitude. hERG current in the presence of test compounds was recorded for at least 5 min to reach a steady state and then 5 sweeps were captured. If a steady state was not reached within 10 minutes, the average peak current of the last 5 sweeps was substituted for the steady state value.

[4] = 1 μM, Table 3, read-out: Metabolic Stability Half-life, human
[5] = Table 6, read-out: Metabolic Stability Half-life, Human
[6] = iv, 1 mg/kg, IV 1 mg/kg, read-out: AUC(0-t)
[7] = po, 20 mg/kg, PO 20 mg/kg, read-out: AUC(0-t)
[8] = po, 20 mg/kg, AUC(0-8 hr), oral administration, Table 7
[9] = po, 20 mg/kg, oral administration, Table 7

Molecule Cc1ccc(NS(=O)(=O)c2cccc(C#N)c2)c2[nH]cc(C#N)c12 [Compound E7820, E7820, reference compound] has a half-life at 1 µM [1, 4] of 0.845 h, a half-life at 1 µM [1, 5] of 0.85 h and an F [2] of 202%. It also gave an AUC(0-t) [2, 6] of 1640 ng·h/mL, a Cmax ([2]; po, 20 mg/kg, PO 20 mg/kg) of 11500 ng/mL and an AUC(0-t) [2, 7] of 66200 ng·h/mL. The AUC(0-inf) ([2]; IV 1 mg/kg) was 1650 ng·h/mL, the C0 ([2]; IV 1 mg/kg) was 3150 ng/mL and the clearance ([2]; IV 1 mg/kg) was 10.2 mL/min/kg. For the same molecule, the half-life ([2]; IV 1 mg/kg) was 0.541 h, the Vd ([2]; IV 1 mg/kg) was 0.393 L/kg and the Tmax ([2]; PO 20 mg/kg) was 2.67 h. It also gave an IC50 [3] of 48.4 µM.
Work on Cc1ncc(S(=O)(=O)Nc2ccc(C)c3c(C#N)c[nH]c23)s1 [Compound 1, N-(3-cyano-4-methyl-1H-indol-7-yl)-2-methyl-thiazole-5-sulfonamide] yielded a half-life at 1 µM [1, 4] of 1.1 h, a half-life at 1 µM [1, 5] of 1.1 h and an F [2] of 407%. The AUC(0-t) [2, 6] was 1860 ng·h/mL, the AUC(0-t) [2, 8] was 62300 ng·h/mL and the Cmax ([2]; po, 20 mg/kg, PO 20 mg/kg) was 25900 ng/mL. The AUC(0-t) [2, 7] was 151000 ng·h/mL, the Cmax [2, 9] was 9850 ng/mL and the AUC(0-inf) ([2]; IV 1 mg/kg) was 1860 ng·h/mL. For the same molecule, the C0 ([2]; IV 1 mg/kg) was 6060 ng/mL, the clearance ([2]; IV 1 mg/kg) was 9.4 mL/min/kg and the half-life ([2]; IV 1 mg/kg) was 0.67 h. For the same molecule, the Vd ([2]; IV 1 mg/kg) was 0.201 L/kg, the AUC(0-inf) ([2]; PO 20 mg/kg) was 190000 ng·h/mL and the Tmax ([2]; PO 20 mg/kg) was 2.33 h. For the same molecule, the half-life ([2]; PO 20 mg/kg) was 2.52 h, the “increase in plasma AUC compared to E7820” value ([2]; oral administration, compared to control compound E7820) was “greater than 2 fold” and the IC50 [3] was > 50 µM. For the same molecule, the “hERG inhibition compared to E7820” value [3] was “less inhibition”.
[2H]C([2H])([2H])c1ncc(S(=O)(=O)Nc2ccc(C)c3c(C#N)c[nH]c23)s1 [Compound 143, N-(3-cyano-4-methyl-1H-indol-7-yl)-2-(methyl-d3)thiazole-5-sulfonamide] showed a half-life at 1 µM [1, 5] of 1.55 h, an AUC(0-t) [2, 8] of 107000 ng·h/mL and a Cmax [2, 9] of 19300 ng/mL. For the same molecule, the “plasma AUC compared to Compound 1” value ([2]; oral administration, compared to Compound 1, in words) was “increase”, the IC50 [3] was > 50 µM and the “hERG inhibition compared to E7820” value [3] was “less inhibition”.

Reference: patent US20260116874A1, “HETEROAROMATIC INDOLESULFONAMIDES” (SEED Therapeutics, Inc., priority 2023, published 2026)
